Laboratory results from the supplement of paper PMC10307832.

Assays:
Experiment in all cases: relative viability (nuclei count vs DMSO), 5 days (fraction); higher = more cells survive
[1] = compound: Nc1ncn([C@H]2C[C@H](O)[C@@H](CO)O2)c(=O)n1 [Decitabine] + CC(=O)Nc1cccc(-n2c(=O)n(C3CC3)c(=O)c3c(Nc4ccc(I)cc4F)n(C)c(=O)c(C)c32)c1 [Trametinib] (partner 0.02 µM)
How it was run: (§1)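 One day after seeding in 1536-well plates, lung cancer cell lines were dosed by pin tool. Dosing was either single-drug or a fixed anchor-drug dose plus five library-drug doses (not always all listed) in √10 steps. After 5 days, nuclei were stained in one fix-and-stain step and counted on 4× images, and relative viability is the nuclei count of treated wells over that of vehicle wells, given as the median of duplicate plates.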

[2] = compound: Nc1ncn([C@H]2C[C@H](O)[C@@H](CO)O2)c(=O)n1 [Decitabine] + Nc1nc2[nH]cc(CCc3ccc(C(=O)N[C@@H](CCC(=O)O)C(=O)O)cc3)c2c(=O)[nH]1 [Pemetrexed] (partner 0.2 µM)
How it was run: as §1

[3] = compound: Nc1ncn([C@H]2C[C@H](O)[C@@H](CO)O2)c(=O)n1 [Decitabine] + N=C(N)NC(=N)NCCc1ccccc1 [Phenformin] (partner 250 µM)
How it was run: as §1

[4] = compound: O=C(C[C@H]1NCCC[C@@H]1O)Cn1cnc2cc(Br)c(Cl)cc2c1=O (racemic) [Halofuginone] + Nc1ncn([C@H]2C[C@H](O)[C@@H](CO)O2)c(=O)n1 [Decitabine] (partner 2 µM)
How it was run: as §1

Cell Line | relative viability ([1]; first compound 0.04 µM) | relative viability ([1]; first compound 0.1265 µM) | relative viability ([1]; first compound 0.4 µM) | relative viability ([1]; first compound 1.265 µM) | relative viability ([1]; first compound 4 µM) | relative viability ([2]; first compound 0.04 µM) | relative viability ([2]; first compound 0.1265 µM) | relative viability ([2]; first compound 0.4 µM) | relative viability ([2]; first compound 1.265 µM) | relative viability ([2]; first compound 4 µM) | relative viability ([3]; first compound 0.04 µM) | relative viability ([3]; first compound 0.1265 µM) | relative viability ([3]; first compound 0.4 µM) | relative viability ([3]; first compound 1.265 µM) | relative viability ([3]; first compound 4 µM) | relative viability ([4]; first compound 0.001 µM) | relative viability ([4]; first compound 0.003162 µM) | relative viability ([4]; first compound 0.01 µM) | relative viability ([4]; first compound 0.03162 µM) | relative viability ([4]; first compound 0.1 µM)
NCI-H1915 | 0.233 | 0.223 | 0.218 | 0.192 | 0.184 | 0.274 | 0.225 | 0.222 | 0.191 | 0.176 | 0.291 | 0.294 | 0.274 | 0.242 | 0.26 | 0.25 | 0.265 | 0.257 | 0.274 | 0.253
NCI-H2009 | 0.227 | 0.255 | 0.229 | 0.181 | 0.252 | 0.902 | 0.727 | 0.439 | 0.357 | 0.341 | 0.433 | 0.4 | 0.333 | 0.282 | 0.286 | 0.343 | 0.332 | 0.403 | 0.415 | 0.308
NCI-H1651 | 0.787 | 0.757 | 0.692 | 0.622 | 0.487 | 0.543 | 0.43 | 0.434 | 0.331 | 0.278 | 0.331 | 0.345 | 0.383 | 0.287 | 0.318 | 0.592 | 0.563 | 0.601 | 0.591 | 0.58
HOP-62 | 0.358 | 0.338 | 0.262 | 0.202 | 0.187 | 0.283 | 0.31 | 0.205 | 0.186 | 0.183 | 0.464 | 0.374 | 0.175 | 0.168 | 0.148 | 0.233 | 0.224 | 0.194 | 0.206 | 0.199
LCLC-103H | 0.659 | 0.714 | 0.771 | 0.623 | 0.688 | 0.426 | 0.362 | 0.284 | 0.379 | 0.333 | 0.319 | 0.36 | 0.293 | 0.328 | 0.315 | 0.773 | 0.78 | 0.735 | 0.711 | 0.728
NCI-H3122 | 0.213 | 0.208 | 0.243 | 0.167 | 0.218 | 0.182 | 0.179 | 0.121 | 0.159 | 0.185 | 0.371 | 0.364 | 0.342 |  | 0.315 | 0.438 | 0.442 | 0.381 | 0.413 | 0.405
NCI-H1395 | 0.793 | 0.906 | 0.828 | 0.655 | 0.607 | 0.64 | 0.685 | 0.744 | 0.474 | 0.484 | 0.398 | 0.407 | 0.46 | 0.411 | 0.399 | 0.662 | 0.69 | 0.751 | 0.631 | 0.519
PC-14 | 0.51 | 0.343 | 0.0811 | 0.146 | 0.128 | 0.123 | 0.0812 | 0.0659 | 0.0902 | 0.0856 | 0.114 | 0.339 | 0.128 | 0.126 | 0.163 | 0.231 | 0.273 | 0.237 | 0.259 | 0.0807
